From ChEMBL document CHEMBL6087402, “Design, synthesis, and in vitro and in vivo biological evaluation of dihydroartemisinin derivatives as potent anti-cancer agents with ferroptosis-inducing and apoptosis-activating properties” (Eur J Med Chem, 2025)

Tests used:
Assay type in all cases: functional, cell-based
[1] = tested on: A549; experiment: Anti-proliferative activity against human A549 cells incubated for 72 hrs by MTT assay; conditions: A549, 72 h
[2] = tested on: Bel-7402; experiment: Anti-proliferative activity against human Bel-7402 cells incubated for 72 hrs by MTT assay; conditions: Bel-7402, 72 h
[3] = tested on: HCT-116; experiment: Anti-proliferative activity against human HCT-116 cells incubated for 72 hrs by MTT assay; conditions: HCT-116, 72 h
[4] = tested on: SW-620; experiment: Anti-proliferative activity against human SW620 cells incubated for 72 hrs by MTT assay; conditions: SW-620, 72 h

Structure (SMILES)	IC50 [1]	IC50 [2]	IC50 [3]	IC50 [4]
COc1ccc(-c2noc(CCC(=O)OC3O[C@@H]4O[C@@]5(C)CC[C@@H]6[C@H](C)CC[C@@H]([C@H]3C)[C@@]46OO5)n2)cc1 (some centres not stated)	> 10 µM	4.96 µM	3.48 µM	> 10 µM
C[C@@H]1CC[C@H]2[C@@H](C)C(OC(=O)c3cn(-c4ccc(F)cc4)nn3)O[C@@H]3O[C@@]4(C)CC[C@H]1[C@]32OO4 (some centres not stated)	> 10 µM	> 10 µM	3.38 µM	9.51 µM
C[C@@H]1CC[C@H]2[C@@H](C)C(OC(=O)c3cnc4ccccc4c3)O[C@@H]3O[C@@]4(C)CC[C@H]1[C@]32OO4 (some centres not stated)	> 10 µM	8.4 µM	2.62 µM	> 10 µM
COc1ccc2[nH]cc(CCNC(=O)CCC(=O)OC3O[C@@H]4O[C@@]5(C)CC[C@@H]6[C@H](C)CC[C@@H]([C@H]3C)[C@@]46OO5)c2c1 (some centres not stated)	> 10 µM	> 10 µM	6.64 µM	7.28 µM
C[C@@H]1CC[C@H]2[C@@H](C)C(OC(=O)c3cn(-c4ccc(Br)cc4)nn3)O[C@@H]3O[C@@]4(C)CC[C@H]1[C@]32OO4 (some centres not stated)	> 10 µM	> 10 µM	3.87 µM	7.42 µM
C[C@@H]1CC[C@H]2[C@@H](C)C(OC(=O)CCC(=O)OCc3cn(-c4ccc(F)cc4)nn3)O[C@@H]3O[C@@]4(C)CC[C@H]1[C@]32OO4 (some centres not stated)	6.28 µM	> 10 µM	2.21 µM	2.33 µM
C[C@@H]1CC[C@H]2[C@@H](C)C(OC(=O)c3cn(-c4ccc([N+](=O)[O-])cc4)nn3)O[C@@H]3O[C@@]4(C)CC[C@H]1[C@]32OO4 (some centres not stated)	> 10 µM	> 10 µM	> 10 µM	4.22 µM
C[C@@H]1CC[C@H]2[C@@H](C)C(OC(=O)c3ccc(Cn4cncn4)cc3)O[C@@H]3O[C@@]4(C)CC[C@H]1[C@]32OO4 (some centres not stated)	7.19 µM	> 10 µM	3.39 µM	8.32 µM
C[C@@H]1CC[C@H]2[C@@H](C)C(OC(=O)c3cn(-c4ccc(Cl)cc4)nn3)O[C@@H]3O[C@@]4(C)CC[C@H]1[C@]32OO4 (some centres not stated)	> 10 µM	9.24 µM	3.12 µM	8.21 µM
C[C@@H]1CC[C@H]2[C@@H](C)C(OC(=O)c3cc4ccccc4cn3)O[C@@H]3O[C@@]4(C)CC[C@H]1[C@]32OO4 (some centres not stated)	> 10 µM	> 10 µM	5.51 µM	4.81 µM
C[C@@H]1CC[C@H]2[C@@H](C)C(OC(=O)c3ccc(CN4CCCCC4)cc3)O[C@@H]3O[C@@]4(C)CC[C@H]1[C@]32OO4 (some centres not stated)	> 10 µM	> 10 µM	2.31 µM	7.1 µM
COc1cc(-n2cc(C(=O)OC3O[C@@H]4O[C@@]5(C)CC[C@@H]6[C@H](C)CC[C@@H]([C@H]3C)[C@@]46OO5)nn2)cc(OC)c1OC (some centres not stated)	> 10 µM	> 10 µM	4.32 µM	1.9 µM
COc1ccc(-n2cc(COC(=O)CCC(=O)OC3O[C@@H]4O[C@@]5(C)CC[C@@H]6[C@H](C)CC[C@@H]([C@H]3C)[C@@]46OO5)nn2)cc1OC (some centres not stated)	8.03 µM	> 10 µM	1.79 µM	2.89 µM
C[C@@H]1CC[C@H]2[C@@H](C)C(OC(=O)CCC(=O)NCCc3c[nH]c4ccc(Cl)cc34)O[C@@H]3O[C@@]4(C)CC[C@H]1[C@]32OO4 (some centres not stated)	7.25 µM	> 10 µM	4.99 µM	1.73 µM
CCCCCCCNC(=O)OC1O[C@@H]2O[C@@]3(C)CC[C@@H]4[C@H](C)CC[C@@H]([C@H]1C)[C@@]24OO3 (some centres not stated)	8 µM	> 10 µM	1.19 µM	3.9 µM
C[C@@H]1CC[C@H]2[C@@H](C)C(OC(=O)CCC(=O)OCc3cn(-c4ccccc4)nn3)O[C@@H]3O[C@@]4(C)CC[C@H]1[C@]32OO4 (some centres not stated)	6.51 µM	> 10 µM	2.38 µM	1.79 µM
C[C@@H]1CC[C@H]2[C@@H](C)C(OC(=O)c3ccc(Cn4cccn4)cc3)O[C@@H]3O[C@@]4(C)CC[C@H]1[C@]32OO4 (some centres not stated)	7.01 µM	> 10 µM	2.31 µM	> 10 µM
C[C@@H]1CC[C@H]2[C@@H](C)C(OC(=O)CCc3nc(-c4ccc(Cl)cc4)no3)O[C@@H]3O[C@@]4(C)CC[C@H]1[C@]32OO4 (some centres not stated)	6.79 µM	7.05 µM	3.68 µM	> 10 µM
C[C@@H]1CC[C@H]2[C@@H](C)C(OC(=O)CCC(=O)NCCc3c[nH]c4ccccc34)O[C@@H]3O[C@@]4(C)CC[C@H]1[C@]32OO4 (some centres not stated)	> 10 µM	> 10 µM	6.74 µM	1.81 µM
COc1ccc(-n2cc(COC(=O)CCC(=O)OC3O[C@@H]4O[C@@]5(C)CC[C@@H]6[C@H](C)CC[C@@H]([C@H]3C)[C@@]46OO5)nn2)cc1 (some centres not stated)	7.18 µM	> 10 µM	2.78 µM	1.59 µM
C[C@@H]1CC[C@H]2[C@@H](C)C(OC(=O)c3cn(-c4ccccc4)nn3)O[C@@H]3O[C@@]4(C)CC[C@H]1[C@]32OO4 (some centres not stated)	> 10 µM	> 10 µM	3.41 µM	7.22 µM
C[C@@H]1CC[C@H]2[C@@H](C)C(OC(=O)CCc3nc(-c4ccccc4)no3)O[C@@H]3O[C@@]4(C)CC[C@H]1[C@]32OO4 (some centres not stated)	9.1 µM	3.99 µM	4.35 µM	7.9 µM
C[C@@H]1CC[C@H]2[C@@H](C)C(OC(=O)CCc3nc(-c4ccc(Cl)c(Cl)c4)no3)O[C@@H]3O[C@@]4(C)CC[C@H]1[C@]32OO4 (some centres not stated)	9.09 µM	> 10 µM	2.13 µM	> 10 µM
C[C@@H]1CC[C@H]2[C@@H](C)C(OC(=O)NC(=O)c3ccccc3)O[C@@H]3O[C@@]4(C)CC[C@H]1[C@]32OO4 (some centres not stated)	> 10 µM	> 10 µM	5.48 µM	> 10 µM
COc1ccc(-n2cc(C(=O)OC3O[C@@H]4O[C@@]5(C)CC[C@@H]6[C@H](C)CC[C@@H]([C@H]3C)[C@@]46OO5)nn2)cc1OC (some centres not stated)	> 10 µM	8.62 µM	3.39 µM	9.61 µM
C[C@@H]1CC[C@H]2[C@@H](C)C(OC(=O)c3ccc(Cn4cc(Cl)cn4)cc3)O[C@@H]3O[C@@]4(C)CC[C@H]1[C@]32OO4 (some centres not stated)	5.07 µM	> 10 µM	2.6 µM	5.17 µM
C[C@@H]1CC[C@H]2[C@@H](C)C(OC(=O)c3ccc(Cn4cc(Br)cn4)cc3)O[C@@H]3O[C@@]4(C)CC[C@H]1[C@]32OO4 (some centres not stated)	4.9 µM	8.53 µM	1.9 µM	> 10 µM
CCCCCNC(=O)OC1O[C@@H]2O[C@@]3(C)CC[C@@H]4[C@H](C)CC[C@@H]([C@H]1C)[C@@]24OO3 (some centres not stated)	7.5 µM	> 10 µM	1.82 µM	1.42 µM
